Experimental data published in patent publication US9133183B2, “Imidazolidinones and analogs exhibiting anti-cancer and anti-proliferative activities” (Deciphera Pharmaceuticals, LLC, priority 2013, dated 2015).
Read-outs that look alike come from different tables or passages of the source.

Assays:
[1] = target: unphosphorylated c-FMS kinase (uFMS, Seq. ID no. 1) (Homo sapiens (Human), UniProt P07333); assay: uFMS kinase assay (ADP production coupled to pyruvate kinase/lactate dehydrogenase); format: biochemical
In short: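 Unphosphorylated FMS (10 nM) with polyE4Y 1 mg/mL and 500 μM ATP in 90 mM Tris pH 7.5, 10 mM MgCl2, 0.2% octyl-glucoside, 1% DMSO. ADP formation was coupled via pyruvate kinase/LDH to NADH oxidation, followed at A340 for 4 h at 30° C.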

[2] = target: unphosphorylated c-KIT kinase (uKIT, Seq. ID no. 2) (Homo sapiens (Human), UniProt P10721); assay: uKit kinase assay (coupled pyruvate kinase/lactate dehydrogenase); format: biochemical; conditions: enzymatic assay, ATP 2000 μM
In short: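 Unphosphorylated KIT (12 nM, N-terminal GST fusion) was run with 1 mg/mL polyE4Y, 2000 μM ATP and 10 mM MgCl2 in Tris buffer (pH 7.5, 0.2% octyl-glucoside, 1% DMSO). ADP was coupled via PK/LDH, with NADH loss tracked at A340 for 4 h at 30 °C. Rates at 3–4 h gave % inhibition and IC50.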

[3] = target: unphosphorylated PDGFRβ kinase (uPDGFRβ, Seq. ID No. 3) (Homo sapiens (Human), UniProt P09619); assay: Unphosphorylated PDGFRβ kinase assay (coupled pyruvate kinase/lactate dehydrogenase); format: biochemical; conditions: enzymatic assay, ATP 500 μM
In short: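 Construct residues 557-1106, unphosphorylated, 15.7 nM, with poly E4Y 2.5 mg/mL and 500 μM ATP, Tris pH 7.5, 1% DMSO, 30 °C. ADP coupled to NADH oxidation via PK/LDH, A340 followed 4 h; rate from 1.5-2.5 h versus no-compound control, IC50 from percent-inhibition series.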

[4] = system: M-NFS-60 cells; assay: M-NFS-60 cell proliferation assay (resazurin); format: cell-based; conditions: 67 h incubation
In short: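 Cells kept in medium containing 20 ng/mL mouse recombinant M-CSF. Fluorescence was read at ex 540/em 600 nm, and IC50 was fitted from percent inhibition across a range of inhibitor concentrations.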

[5] = system: osteoclast precursors; assay: Osteoclast tartrate-resistant acid phosphatase assay; format: cell-based; conditions: Osteoclast, 7-14 days, RANKL and M-CSF
[6] = target: c-FMS kinase in THP-1 cells (Homo sapiens (Human), UniProt P07333); assay: Phospho-FMS ELISA assay in THP-1 cells; format: cell-based
Protocol: THP-1 cells (catalog #TIB-202) were obtained from the ATCC. Briefly, cells were grown in RPMI 1640 supplemented with 10% characterized fetal bovine serum, 1% sodium pyruvate, 1% Penicillin-Streptomycin-Glutamine (PSG) and 55 uM 2-mercaptoethanol (Invitrogen, Carlsbad, Calif.) at 37 degrees Celsius, 5% CO2, 95% humidity. Cells were allowed to expand until reaching 70-95% confluency at which point they were subcultured or harvested for assay use.
A serial dilution of test compound was diluted 1:100 in assay medium (RPMI 1640 supplemented with 10% characterized fetal bovine serum) in a 96 well black clear bottom plate (Corning, Corning, N.Y.). In a separate 96 well black clear bottom plate, one hundred and fifty thousand THP-1 cells were added per well in 100 μL in assay medium. Fifty microliters of diluted compound was then added to the cells. Plates were incubated for 4 hours at 37 degrees Celsius, 5% CO2, 95% humidity. At the end of the incubation period, cells were stimulated with 50 μL of a 100 nM solution of recombinant human M-CSF (catalog #216-MC, R & D Systems, Minneapolis, Minn.) in assay medium and the plate was incubated for 5 minutes at 37 degrees Celsius, 5% CO2, 95% humidity. Lysates were prepared and used to perform the phospho-FMS ELISA as described by the manufacturer (catalog #DYC3268, R & D Systems, Minneapolis, Minn.). GraphPad Prism was used to calculate IC50 values obtained from data generated from the ELISA assay.

[7] = target: cMET kinase (Homo sapiens (Human), UniProt P08581); assay: cMET kinase inhibition (Table 4); format: biochemical
[8] = target: KDR kinase (Homo sapiens (Human), UniProt P35968); assay: KDR kinase inhibition (Table 4); format: biochemical
[9] = uFMS, enzymatic assay, ATP 500 μM
[10] = enzymatic assay, ATP 500 μM, read-out: uFMS
[11] = 4 h compound, M-CSF stimulation 5 min, read-out: pFMS inhibition in THP-1 cells

cMET kinase, sequence (P08581 25-1390): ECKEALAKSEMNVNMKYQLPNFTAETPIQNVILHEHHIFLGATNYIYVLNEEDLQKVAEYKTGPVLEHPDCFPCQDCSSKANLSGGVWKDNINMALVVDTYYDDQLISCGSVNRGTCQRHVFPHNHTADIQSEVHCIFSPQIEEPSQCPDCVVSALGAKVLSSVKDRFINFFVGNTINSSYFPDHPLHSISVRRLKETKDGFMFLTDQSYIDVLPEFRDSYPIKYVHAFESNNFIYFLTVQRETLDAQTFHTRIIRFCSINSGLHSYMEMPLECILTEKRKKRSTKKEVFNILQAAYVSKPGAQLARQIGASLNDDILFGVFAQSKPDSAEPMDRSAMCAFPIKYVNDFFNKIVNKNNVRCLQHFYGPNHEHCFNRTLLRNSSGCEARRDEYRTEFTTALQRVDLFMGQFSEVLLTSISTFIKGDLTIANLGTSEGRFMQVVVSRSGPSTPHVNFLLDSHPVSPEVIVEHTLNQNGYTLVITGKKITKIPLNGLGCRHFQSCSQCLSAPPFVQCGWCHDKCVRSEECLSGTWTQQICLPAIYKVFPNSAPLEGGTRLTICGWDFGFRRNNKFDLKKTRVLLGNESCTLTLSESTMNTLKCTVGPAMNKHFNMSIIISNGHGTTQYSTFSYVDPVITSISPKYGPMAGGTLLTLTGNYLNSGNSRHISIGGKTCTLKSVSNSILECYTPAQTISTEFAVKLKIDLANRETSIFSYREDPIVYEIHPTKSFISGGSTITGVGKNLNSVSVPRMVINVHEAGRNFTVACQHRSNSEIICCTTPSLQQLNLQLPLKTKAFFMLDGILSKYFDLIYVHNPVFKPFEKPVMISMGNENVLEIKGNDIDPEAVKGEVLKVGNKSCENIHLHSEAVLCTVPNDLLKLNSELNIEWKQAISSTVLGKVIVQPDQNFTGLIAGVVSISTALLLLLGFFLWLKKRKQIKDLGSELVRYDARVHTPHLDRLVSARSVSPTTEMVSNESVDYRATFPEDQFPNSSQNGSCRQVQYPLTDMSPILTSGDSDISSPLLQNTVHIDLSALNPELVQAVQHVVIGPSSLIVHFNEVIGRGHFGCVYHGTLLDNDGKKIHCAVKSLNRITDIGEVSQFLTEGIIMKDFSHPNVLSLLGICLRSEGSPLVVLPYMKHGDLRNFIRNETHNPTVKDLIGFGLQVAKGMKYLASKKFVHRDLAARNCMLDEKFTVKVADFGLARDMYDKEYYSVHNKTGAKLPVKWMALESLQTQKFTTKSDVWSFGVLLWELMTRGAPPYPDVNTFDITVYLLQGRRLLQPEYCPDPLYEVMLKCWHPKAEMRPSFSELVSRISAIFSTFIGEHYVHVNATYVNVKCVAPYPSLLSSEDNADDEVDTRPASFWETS
c-FMS kinase in THP-1 cells, sequence (P07333 20-972): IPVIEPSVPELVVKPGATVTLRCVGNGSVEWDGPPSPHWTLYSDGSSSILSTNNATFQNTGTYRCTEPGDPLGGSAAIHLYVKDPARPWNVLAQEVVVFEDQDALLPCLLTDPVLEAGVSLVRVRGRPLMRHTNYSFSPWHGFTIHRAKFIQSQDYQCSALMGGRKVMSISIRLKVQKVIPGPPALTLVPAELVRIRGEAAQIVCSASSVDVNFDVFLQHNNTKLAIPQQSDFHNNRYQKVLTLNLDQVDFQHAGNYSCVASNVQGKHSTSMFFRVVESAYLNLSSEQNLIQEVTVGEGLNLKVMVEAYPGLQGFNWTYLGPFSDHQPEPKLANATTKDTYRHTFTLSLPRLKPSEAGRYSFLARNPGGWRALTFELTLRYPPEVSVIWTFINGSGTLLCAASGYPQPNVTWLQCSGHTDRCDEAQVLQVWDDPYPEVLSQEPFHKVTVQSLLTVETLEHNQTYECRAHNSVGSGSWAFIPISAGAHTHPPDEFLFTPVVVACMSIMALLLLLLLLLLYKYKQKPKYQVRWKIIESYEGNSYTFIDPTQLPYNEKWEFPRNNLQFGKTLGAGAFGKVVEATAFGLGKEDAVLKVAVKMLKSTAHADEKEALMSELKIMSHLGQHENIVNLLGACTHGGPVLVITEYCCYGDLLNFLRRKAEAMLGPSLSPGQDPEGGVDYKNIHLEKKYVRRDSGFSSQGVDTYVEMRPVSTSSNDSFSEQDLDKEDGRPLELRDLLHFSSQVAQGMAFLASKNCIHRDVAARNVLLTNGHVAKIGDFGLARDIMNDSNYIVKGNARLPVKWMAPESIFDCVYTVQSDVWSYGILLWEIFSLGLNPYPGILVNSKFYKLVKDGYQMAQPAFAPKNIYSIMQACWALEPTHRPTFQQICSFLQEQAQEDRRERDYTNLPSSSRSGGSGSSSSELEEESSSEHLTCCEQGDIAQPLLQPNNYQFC
KDR kinase, sequence (P35968 20-1356): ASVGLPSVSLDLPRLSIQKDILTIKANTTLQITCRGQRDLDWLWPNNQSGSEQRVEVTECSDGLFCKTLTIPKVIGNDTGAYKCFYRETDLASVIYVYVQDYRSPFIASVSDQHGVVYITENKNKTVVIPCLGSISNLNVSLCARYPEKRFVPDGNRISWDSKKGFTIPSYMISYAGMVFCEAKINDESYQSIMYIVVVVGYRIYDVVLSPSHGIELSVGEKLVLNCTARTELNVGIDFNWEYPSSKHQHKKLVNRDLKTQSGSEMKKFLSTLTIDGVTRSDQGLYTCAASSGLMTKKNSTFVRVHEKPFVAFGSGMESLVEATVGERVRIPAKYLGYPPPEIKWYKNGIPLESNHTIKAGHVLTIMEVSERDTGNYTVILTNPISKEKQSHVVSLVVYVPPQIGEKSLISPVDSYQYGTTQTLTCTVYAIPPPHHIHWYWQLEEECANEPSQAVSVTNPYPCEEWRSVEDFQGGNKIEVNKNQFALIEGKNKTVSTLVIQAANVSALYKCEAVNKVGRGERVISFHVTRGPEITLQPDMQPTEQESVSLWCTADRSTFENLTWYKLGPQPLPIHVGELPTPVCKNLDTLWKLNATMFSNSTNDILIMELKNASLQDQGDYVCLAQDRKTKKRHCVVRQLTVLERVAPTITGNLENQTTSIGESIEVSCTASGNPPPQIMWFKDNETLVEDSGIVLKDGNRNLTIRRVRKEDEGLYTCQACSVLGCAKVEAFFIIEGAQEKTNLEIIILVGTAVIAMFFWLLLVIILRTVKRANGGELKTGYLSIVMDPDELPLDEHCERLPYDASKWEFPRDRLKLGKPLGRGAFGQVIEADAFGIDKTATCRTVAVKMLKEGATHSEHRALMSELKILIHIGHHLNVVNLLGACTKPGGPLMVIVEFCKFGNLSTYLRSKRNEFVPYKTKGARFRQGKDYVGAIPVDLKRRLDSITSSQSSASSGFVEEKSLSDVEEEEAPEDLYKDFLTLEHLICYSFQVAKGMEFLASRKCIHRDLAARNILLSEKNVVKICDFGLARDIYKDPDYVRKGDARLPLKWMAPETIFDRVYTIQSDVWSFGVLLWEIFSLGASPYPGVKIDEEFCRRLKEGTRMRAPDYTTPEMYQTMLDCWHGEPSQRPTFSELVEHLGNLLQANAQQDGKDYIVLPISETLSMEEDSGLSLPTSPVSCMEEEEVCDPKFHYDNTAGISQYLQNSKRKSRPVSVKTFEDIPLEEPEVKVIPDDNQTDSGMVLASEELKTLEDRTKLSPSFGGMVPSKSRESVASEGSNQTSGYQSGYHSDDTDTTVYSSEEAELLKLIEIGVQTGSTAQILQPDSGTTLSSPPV
unphosphorylated c-FMS kinase (uFMS, Seq. ID no. 1), sequence (P07333 538-972): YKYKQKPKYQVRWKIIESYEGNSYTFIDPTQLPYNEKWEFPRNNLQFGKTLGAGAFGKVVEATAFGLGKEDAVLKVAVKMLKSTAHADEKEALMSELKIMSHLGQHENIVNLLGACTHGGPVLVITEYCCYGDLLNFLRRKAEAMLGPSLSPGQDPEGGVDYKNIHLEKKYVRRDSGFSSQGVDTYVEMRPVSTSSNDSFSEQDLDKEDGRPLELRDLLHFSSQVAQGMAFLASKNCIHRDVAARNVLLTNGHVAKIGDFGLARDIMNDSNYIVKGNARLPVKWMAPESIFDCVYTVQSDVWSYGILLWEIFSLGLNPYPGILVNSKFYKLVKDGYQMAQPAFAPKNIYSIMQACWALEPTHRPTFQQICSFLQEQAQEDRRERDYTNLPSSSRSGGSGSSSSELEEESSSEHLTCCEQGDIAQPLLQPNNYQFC
unphosphorylated PDGFRβ kinase (uPDGFRβ, Seq. ID No. 3), sequence (P09619 557-1106): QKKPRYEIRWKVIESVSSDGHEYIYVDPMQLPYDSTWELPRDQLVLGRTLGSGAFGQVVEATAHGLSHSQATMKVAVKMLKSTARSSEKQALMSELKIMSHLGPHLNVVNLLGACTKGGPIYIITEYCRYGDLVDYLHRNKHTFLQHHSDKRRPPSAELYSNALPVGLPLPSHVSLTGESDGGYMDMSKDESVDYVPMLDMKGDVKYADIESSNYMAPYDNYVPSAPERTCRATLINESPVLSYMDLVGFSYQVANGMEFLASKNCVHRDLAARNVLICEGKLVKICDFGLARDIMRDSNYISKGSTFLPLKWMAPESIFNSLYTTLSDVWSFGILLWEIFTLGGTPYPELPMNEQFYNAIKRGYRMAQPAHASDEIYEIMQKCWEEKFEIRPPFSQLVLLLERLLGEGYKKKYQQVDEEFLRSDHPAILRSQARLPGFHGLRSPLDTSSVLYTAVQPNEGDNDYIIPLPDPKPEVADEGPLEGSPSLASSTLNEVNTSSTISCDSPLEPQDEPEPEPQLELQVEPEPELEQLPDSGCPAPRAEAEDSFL

Row | Compound | IC50 [1, 9] | IC50 [2] | IC50 [3] | IC50 [4] | IC50 [5] | IC50 [6] | IC50 [1, 10] | IC50 [6, 11] | IC50 ([1]; Table 4, read-out: c-FMS IC50) | IC50 [7] | IC50 [8]
1 | Cc1nc(NC(=O)N2CCN(C3CCOC3)C2=O)ccc1Oc1ccnc(-c2cnn(C)c2)c1 (stereo in doubt) [Example 23, (S)—N-(6-methyl-5-((2-(1-methyl-1H-pyrazol-4-yl)pyridin-4-yl)oxy)pyridin-2-yl)-2-oxo-3-(tetrahydrofuran-3-yl)imidazolidine-1-carboxamide] | 10 to 100 nM | > 1000 nM | > 1000 nM | 10 to 100 nM | 10 to 100 nM | 10 to 100 nM | – | – | – | – | –
2 | Cn1cc(-c2cc(Oc3cc(F)c(NC(=O)N4CCN(C5CCOCC5)C4=O)cc3Cl)ccn2)cn1 [Example 92, N-(5-chloro-2-fluoro-4-((2-(1-methyl-1H-pyrazol-4-yl)pyridin-4-yl)oxy)phenyl)-2-oxo-3-(tetrahydro-2H-pyran-4-yl)imidazolidine-1-carboxamide] | – | 10 to 100 nM | – | 10 to 100 nM | 10 to 100 nM | – | < 10 nM | 10 to 100 nM | – | – | –
3 | Cn1cc(-c2cc(Oc3cc(F)c(NC(=O)N4CCN(C5CCOCC5)C4=O)cc3F)ccn2)cn1 [Example 91, N-(2,5-difluoro-4-((2-(1-methyl-1H-pyrazol-4-yl)pyridin-4-yl)oxy)phenyl)-2-oxo-3-(tetrahydro-2H-pyran-4-yl)imidazolidine-1-carboxamide] | – | 100 to 1000 nM | – | 10 to 100 nM | 10 to 100 nM | – | < 10 nM | 10 to 100 nM | 7 nM | > 5000 nM | > 3300 nM
4 | CNC(=O)c1cc(Oc2ccc(NC(=O)N3CCN(C(C)(C)C)C3=O)nc2)ccn1 [Example 90, 4-((6-(3-(tert-butyl)-2-oxoimidazolidine-1-carboxamido)pyridin-3-yl)oxy)-N-methylpicolinamide] | – | 10 to 100 nM | 10 to 100 nM | 10 to 100 nM | 10 to 100 nM | – | < 10 nM | – | 5 nM | > 5000 nM | 3300 nM
5 | O=C(Nc1cc(Cl)c(Oc2ccnc(-c3cn[nH]c3)c2)cc1F)N1CCN(C2CCOCC2)C1=O [Example 94, N-(4-((2-(1H-pyrazol-4-yl)pyridin-4-yl)oxy)-5-chloro-2-fluorophenyl)-2-oxo-3-(tetrahydro-2H-pyran-4-yl)imidazolidine-1-carboxamide] | – | – | – | 100 to 1000 nM | 100 to 1000 nM | – | 10 to 100 nM | 10 to 100 nM | – | – | –
6 | [2H]C([2H])([2H])n1cc(-c2cc(Oc3ccc(NC(=O)N4CCN([C@@H]5CCOC5)C4=O)nc3C)ccn2)cn1 [Example 37, (R)—N-(6-methyl-5-((2-(1-(trideuteromethyl)-1H-pyrazol-4-yl)pyridin-4-yl)oxy)pyridin-2-yl)-2-oxo-3-(tetrahydrofuran-3-yl)imidazolidine-1-carboxamide] | 10 to 100 nM | 100 to 1000 nM | > 1000 nM | 10 to 100 nM | 10 to 100 nM | 10 to 100 nM | – | – | – | – | –
7 | Cn1cc(-c2cc(Oc3ccc(NC(=O)N4CCN(C5CCCCC5)C4=O)nc3)ccn2)cn1 [Example 15, 3-cyclohexyl-N-(5-((2-(1-methyl-1H-pyrazol-4-yl)pyridin-4-yl)oxy)pyridin-2-yl)-2-oxoimidazolidine-1-carboxamide] | – | – | 10 to 100 nM | < 10 nM | < 10 nM | – | < 10 nM | 10 to 100 nM | 3 nM | 370 nM | 670 nM
8 | CN(C)C(=O)Nc1cc(Oc2cc(F)c(NC(=O)N3CCN(C4CCOCC4)C3=O)cc2Cl)ccn1 [Example 101, N-(5-chloro-4-((2-(3,3-dimethylureido)pyridin-4-yl)oxy)-2-fluorophenyl)-2-oxo-3-(tetrahydro-2H-pyran-4-yl)imidazolidine-1-carboxamide] | – | – | 100 to 1000 nM | 10 to 100 nM | < 10 nM | – | < 10 nM | 10 to 100 nM | 8 nM | 4000 nM | > 3300 nM
9 | Cc1cc(-c2cc(Oc3ccc(NC(=O)N4CCN(C5CCOCC5)C4=O)nc3C)ccn2)on1 [Example 14, N-(6-methyl-5-((2-(3-methylisoxazol-5-yl)pyridin-4-yl)oxy)pyridin-2-yl)-2-oxo-3-(tetrahydro-2H-pyran-4-yl)imidazolidine-1-carboxamide] | – | – | > 1000 nM | 100 to 1000 nM | 10 to 100 nM | – | 10 to 100 nM | 100 to 1000 nM | – | – | –
10 | Cn1cc(-c2cc(Oc3ccc(NC(=O)N4CCN(C5CCOCC5)C4=O)cc3Cl)ccn2)cn1 [Example 96, N-(3-chloro-4-((2-(1-methyl-1H-pyrazol-4-yl)pyridin-4-yl)oxy)phenyl)-2-oxo-3-(tetrahydro-2H-pyran-4-yl)imidazolidine-1-carboxamide] | – | – | – | > 1000 nM | 100 to 1000 nM | – | 10 to 100 nM | 10 to 100 nM | – | – | –
11 | O=C(Nc1ccc(Oc2ccnc(-c3cn[nH]c3)c2)cn1)N1CCN(C2CCOCC2)C1=O [Example 5, N-(5-((2-(1H-pyrazol-4-yl)pyridin-4-yl)oxy)pyridin-2-yl)-2-oxo-3-(tetrahydro-2H-pyran-4-yl)imidazolidine-1-carboxamide] | 10 to 100 nM | – | 100 to 1000 nM | 10 to 100 nM | 10 to 100 nM | 100 to 1000 nM | – | – | – | – | –
